Measurements: patent US7902181B2, “Compounds 010” (AstraZeneca AB, priority 2007, dated 2011)
Counter-ions that a name gives are not always drawn.

Biological target: Recombinant Human (rh) DPP1 (Homo sapiens, UniProt P53634)
Assay: Fluorescence Assay for Recombinant Human (rh) DPP1
Assay type: biochemical
Conditions: rhDPP1; substrate H-Gly-Arg-AMC; pH5.0; 30 min pre-incubation, 60 min reaction at 22° C.; highest concentration 10 μM; read-out: DPP1 activity, pIC50 (converted)
Experimental: Fluorescence Assay for Recombinant Human (rh) DPP1
The activity of DPP1 was determined by measuring the enzymatic release of aminomethyl coumarin (AMC) from the peptide substrate (H-Gly-Arg-AMC), which leads to an increase in fluorescence intensity at λex=350 nm and λem=450 nm. The assay was carried out in black 384 well plates in a final volume of 50 μl at 22° C. The assay conditions contained the following: 25 mM piperazine buffer pH5.0; 50 mM NaCl, 5 mM DTT; 0.01% (v/v) Triton X-100; 100 μM H-Gly-Arg-AMC and rhDPP1 ([…]). Potential inhibitors were made up in DMSO and then diluted in the assay to give a final concentration of 1% (v/v) DMSO. A 12-point half-log dilution of the inhibitors (highest concentration 10 μM) was tested and the pIC50 determined using a 4-parameter logistic equation in a non-linear curve fitting routine. A standard DPP1 inhibitor (vinyl sulfone, see below) was used as a positive control in the assay. Routinely, inhibitors were pre-incubated with rhDPP1 for 30 min prior to the addition of the peptide substrate to start the reaction for a further 60 min at 22° C. After that the plates were immediately read in a fluorescence plate reader using the above emission and excitation wavelengths [modified from Kam, C M, Gotz, M G, Koot, G, McGuire, M J, Thiele, D L, Hudig, D & Powers, J C (2004). Arch Biochem Biophys, 427, 123-134 & McGuire, M J, Lipsky, P E & Thiele, D L (1992). Arch Biochem Biophys, 295, 280-288].

Chain of Recombinant Human (rh) DPP1 (P53634 25-463): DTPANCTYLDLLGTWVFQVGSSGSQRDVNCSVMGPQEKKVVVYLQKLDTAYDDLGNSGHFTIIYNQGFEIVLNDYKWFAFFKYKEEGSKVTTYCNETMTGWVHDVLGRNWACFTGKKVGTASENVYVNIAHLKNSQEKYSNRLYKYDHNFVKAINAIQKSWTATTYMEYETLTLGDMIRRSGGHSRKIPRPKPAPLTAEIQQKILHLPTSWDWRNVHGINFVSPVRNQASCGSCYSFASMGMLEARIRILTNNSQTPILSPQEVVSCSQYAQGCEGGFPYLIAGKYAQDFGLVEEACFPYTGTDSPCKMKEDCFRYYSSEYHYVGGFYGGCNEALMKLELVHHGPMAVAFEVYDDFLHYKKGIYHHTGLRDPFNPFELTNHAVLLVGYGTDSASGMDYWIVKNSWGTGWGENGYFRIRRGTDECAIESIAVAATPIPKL

Row | SMILES | IC50 [nM]
1 | CSc1ccc(-c2ccc(C[C@@H](C#N)NC(=O)[C@@H]3CCCCN3)cc2)cc1C#N [Example 63, (S)-N-((S)-1-cyano-2-(3′-cyano-4′-(methylthio)biphenyl-4-yl)ethyl)piperidine-2-carboxamide] | 7.94
2 | CS(=O)(=O)c1ccc(-c2ccc(C[C@@H](C#N)NC(=O)[C@@H]3CCCCN3)cc2)cc1C#N [Example 64, (S)-N-((S)-1-Cyano-2-(3′-cyano-4′-(methylsulfonyl)biphenyl-4-yl)ethyl)piperidine-2-carboxamide] | 10
3 | Cn1c(=O)sc2ccc(-c3ccc(C[C@@H](C#N)NC(=O)[C@@H]4CCCCN4)cc3)cc21 [Example 66, (S)-N-((S)-1-Cyano-2-(4-(3-methyl-2-oxo-2,3-dihydrobenzo[d]thiazol-5-yl)phenyl)ethyl) piperidine-2-carboxamide] | 2
4 | N#C[C@H](Cc1ccc(-c2ccc3c(c2)CNS3(=O)=O)cc1)NC(=O)[C@@H]1CCCCN1 [Example 67, (2S)-N-{(1S)-1-cyano-2-[4-(1,1-dioxido-2,3-dihydro-1,2-benzisothiazol-5-yl)phenyl]ethyl} piperidine-2-carboxamide] | 10
5 | N#C[C@H](Cc1ccc(-c2ccc3c(c2)SCC(=O)N3)cc1)NC(=O)[C@@H]1CCCCN1 [Example 68, (S)-N-((S)-1-Cyano-2-(4-(3-oxo-3,4-dihydro-2H-benzo[b][1,4]thia-zin-7-yl)phenyl)ethyl) piperidine-2-carboxamide] | 15.8
6 | CN1Cc2cc(-c3ccc(C[C@@H](C#N)NC(=O)[C@@H]4CCCCN4)cc3)ccc2S1(=O)=O [Example 69] | 12.6
7 | CCc1ccc(-c2ccc(C[C@@H](C#N)NC(=O)[C@@H]3CCCCN3)cc2)cc1 [Example 70, (S)-N-((S)-1-Cyano-2-(4′-ethylbiphenyl-4-yl)ethyl)piperidine-2-carboxamide Trifluoroacetate] | 20
8 | CNS(=O)(=O)c1ccc(-c2ccc(C[C@@H](C#N)NC(=O)[C@@H]3CCCCN3)cc2)cc1 [Example 71, (S)-N-((S)-1-Cyano-2-(4′-(N-methylsulfamoyl)biphenyl-4-yl)ethyl)piperidine-2-carboxamide Trifluoroacetate] | 6.31
9 | N#C[C@H](Cc1ccc(-c2ccc(S(=O)(=O)N3CCC3)cc2)cc1)NC(=O)[C@@H]1CCCCN1 [Example 72, (S)-N-((S)-2-(4′-(Azetidin-1-ylsulfonyl)biphenyl-4-yl)-1-cyanoethyl)piperidine-2-carboxamide Trifluoroacetate] | 3.98
10 | N#C[C@H](Cc1ccc(-c2ccc(S(=O)(=O)NCCO)cc2)cc1)NC(=O)[C@@H]1CCCCN1 [Example 73, (S)-N-((S)-1-Cyano-2-(4′-(N-(2-hydroxyethyl)sulfamoyl)biphenyl-4-yl)ethyl)piperidine-2-carboxamide] | 10
11 | CNC(=O)c1ccc(-c2ccc(C[C@@H](C#N)NC(=O)[C@@H]3CCCCN3)cc2)cc1 [Example 74, (S)-N-((S)-1-Cyano-2-(4′-(methylcarbamoyl)biphenyl-4-yl)ethyl)piperidine-2-carboxamide Trifluoroacetate] | 100
12 | N#C[C@H](Cc1ccc(-c2ccc(C(=O)N3CCCC3)cc2)cc1)NC(=O)[C@@H]1CCCCN1 [Example 75, (S)-N-((S)-1-Cyano-2-(4′-(pyrrolidine-1-carbonyl)biphenyl-4-yl)ethyl)piperidine-2-carboxamide Trifluoroacetate] | 200
13 | CN1CCN(C(=O)c2ccc(-c3ccc(C[C@@H](C#N)NC(=O)[C@@H]4CCCCN4)cc3)cc2)CC1 [Example 76, (S)-N-((S)-1-Cyano-2-(4′-(4-methylpiperazine-1-carbonyl)biphenyl-4-yl)ethyl)piperidine-2-carboxamide Trifluoroacetate] | 158
14 | N#Cc1ccc(-c2ccc(C[C@@H](C#N)NC(=O)[C@@H]3CCCCN3)cn2)cc1 [Example 77, (S)-N-((S)-1-Cyano-2-(6-(4-cyanophenyl)pyridin-3-yl)ethyl)piperidine-2-carboxamide Trifluoroacetate] | 31.6
